According to patent US20210161882A1, “DEPOT ADMINISTRATION OF ILOPERIDONE” (Vanda Pharmaceuticals Inc., priority 2018, published 2021):

Test: Crystalline iloperidone particle size determination (Malvern Mastersizer 2000 laser light scattering)
Format: physicochemical
Conditions: wet dispersion in saturated 0.1% Tween 80, average of n=2 trials, each the average of 5 acquisitions
Protocol: Crystalline iloperidone particle sizes are determined in accordance with the following example. The Malvern Mastersizer 2000 (Malvern Instruments, Ltd., Malvern, UK) laser light scattering particle size analyzer and Hydro 2000 (Malvern Instruments, Ltd., Malvern, UK) wet sample dispersion unit are turned on, allowing time for the laser to warm up, e.g., for about 30 minutes. The PC is turned on, Mastersizer 2000 software is opened, and a file is created for storing results. An instrument verification check is performed according to SGS SOP EQP-525-10 Operation Preventative Maintenance and Performance Verification of the Mastersizer 2000. A new file for results storage is created, and the device is configured for Existing SOP for iloperidone. The parameters listed under the SOP are verified to confirm accuracy, namely: sample material name, iloperidone depot for injection; refractive index, 1.53, absorption, 0.1; dispersant medium, saturate 0.1% Tween 80 (Sigma Aldrich Co., St. Louis, Mo.) with 0.1% w/v sample; refractive index, 1.33; result model, general purpose; particle shape, irregular; sensitivity, normal; pump speed, 2000 RPM; sample measurement time, 12 seconds (12,000 snaps); background measurement time, 12 seconds (12,000 snaps); size range, 0.020 to 2000.000 μm; aliquot per SOP, 1; number of measurement cycles, 5 (report average); obscuration limits, 10-20%. Verification is made that the outlet tube of the dispersion unit is into the waste tank, and the tank is not full; the waste container is emptied on an as needed basis. […]
Samples are prepared by saturating 0.1% Tween 80 (Sigma-Aldrich Co., St. Louis, Mo.) polysorbate 80 with 0.1% w/v crystalline iloperidone. […] The SOP is started with the parameters for the sample so that the instrument is ready to perform measurements as soon as the sample is introduced to the Hydro 2000 unit. […] Each sample is measured twice (out of one preparation).
The resulting histogram is then evaluated. […]

- average Dv10: 14-50 μm
- average Dv50: 91-118 μm
- average Dv90: 188-241 μm
Structure (SMILES): COc1cc(C(C)=O)ccc1OCCCN1CCC(c2noc3cc(F)ccc23)CC1 [crystalline iloperidone, 1-[4-[3-[4-(6-flouro-1,2-benzisoxazol-3-yl)-1-piperidinyl]propoxy]-3-methoxyphenyl]ethanone]
